The source of these data is patent US11203571B2, “Sulfonamides as modulators of sodium channels” (VERTEX PHARMACEUTICALS INCORPORATED, priority 2013, dated 2021).

In one data set the target is human Nav1.8 (Homo sapiens (Human), UniProt Q9Y5Y9). The data set is described as follows: E-VIPR optical membrane potential assay with electrical stimulation. The class given is cell-based. Conditions: HEK cells expressing human Nav1.8. The text has this: E-VIPR Optical Membrane Potential Assay Method with Electrical Stimulation
Sequence of human Nav1.8 (Q9Y5Y9 whole entry): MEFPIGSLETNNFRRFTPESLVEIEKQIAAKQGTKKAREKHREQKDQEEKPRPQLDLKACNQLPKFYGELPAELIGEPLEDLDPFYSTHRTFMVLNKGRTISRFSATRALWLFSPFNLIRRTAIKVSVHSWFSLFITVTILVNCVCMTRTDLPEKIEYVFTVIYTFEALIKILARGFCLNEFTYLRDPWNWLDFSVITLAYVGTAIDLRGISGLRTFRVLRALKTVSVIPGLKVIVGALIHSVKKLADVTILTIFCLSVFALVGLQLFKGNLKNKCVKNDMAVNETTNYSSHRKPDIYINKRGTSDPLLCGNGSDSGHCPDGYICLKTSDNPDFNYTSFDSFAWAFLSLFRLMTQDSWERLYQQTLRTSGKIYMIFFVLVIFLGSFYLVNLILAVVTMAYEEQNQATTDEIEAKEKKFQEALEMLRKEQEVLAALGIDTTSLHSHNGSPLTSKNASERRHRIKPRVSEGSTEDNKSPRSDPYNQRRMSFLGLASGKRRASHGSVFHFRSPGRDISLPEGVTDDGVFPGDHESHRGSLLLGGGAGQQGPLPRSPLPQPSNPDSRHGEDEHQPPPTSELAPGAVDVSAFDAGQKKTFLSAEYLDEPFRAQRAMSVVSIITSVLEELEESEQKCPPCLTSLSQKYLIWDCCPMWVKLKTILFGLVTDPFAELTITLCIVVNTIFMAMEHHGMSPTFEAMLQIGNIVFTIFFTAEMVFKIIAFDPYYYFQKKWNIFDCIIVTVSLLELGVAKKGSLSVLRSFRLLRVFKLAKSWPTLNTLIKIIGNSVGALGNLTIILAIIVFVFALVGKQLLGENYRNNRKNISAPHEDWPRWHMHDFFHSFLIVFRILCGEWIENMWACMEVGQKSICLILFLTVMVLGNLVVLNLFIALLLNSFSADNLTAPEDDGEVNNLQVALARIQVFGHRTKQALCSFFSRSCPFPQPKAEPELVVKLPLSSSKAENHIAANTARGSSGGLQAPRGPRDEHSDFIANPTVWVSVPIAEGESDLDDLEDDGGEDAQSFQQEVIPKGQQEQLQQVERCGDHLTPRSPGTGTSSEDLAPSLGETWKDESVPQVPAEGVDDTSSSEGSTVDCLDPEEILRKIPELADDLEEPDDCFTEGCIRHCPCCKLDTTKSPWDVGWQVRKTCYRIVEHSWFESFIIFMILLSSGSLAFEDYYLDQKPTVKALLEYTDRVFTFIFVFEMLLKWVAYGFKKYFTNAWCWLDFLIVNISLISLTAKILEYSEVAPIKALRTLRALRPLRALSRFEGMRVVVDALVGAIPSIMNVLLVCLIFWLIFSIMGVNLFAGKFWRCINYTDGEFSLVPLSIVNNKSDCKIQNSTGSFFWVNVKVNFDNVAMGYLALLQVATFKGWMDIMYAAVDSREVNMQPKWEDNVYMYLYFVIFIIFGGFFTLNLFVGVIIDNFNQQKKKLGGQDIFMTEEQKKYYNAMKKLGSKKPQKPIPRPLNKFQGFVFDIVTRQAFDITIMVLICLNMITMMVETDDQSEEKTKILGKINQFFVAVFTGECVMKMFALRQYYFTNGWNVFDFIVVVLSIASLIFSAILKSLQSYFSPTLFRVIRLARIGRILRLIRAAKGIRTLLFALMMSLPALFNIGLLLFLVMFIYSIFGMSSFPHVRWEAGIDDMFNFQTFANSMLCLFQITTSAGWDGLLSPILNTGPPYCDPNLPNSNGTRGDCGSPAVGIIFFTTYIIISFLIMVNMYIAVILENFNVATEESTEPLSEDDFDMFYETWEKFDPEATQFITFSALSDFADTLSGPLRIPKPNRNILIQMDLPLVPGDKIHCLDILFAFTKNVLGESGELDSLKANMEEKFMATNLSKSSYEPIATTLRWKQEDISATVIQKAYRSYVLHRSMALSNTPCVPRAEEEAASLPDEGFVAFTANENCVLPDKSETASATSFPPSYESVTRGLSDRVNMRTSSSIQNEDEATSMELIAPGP
Sodium channels are voltage-dependent proteins that can be activated by inducing membrane voltage changes by applying electric fields. The electrical stimulation instrument and methods of use are described in Ion Channel Assay Methods PCT/US01/21652, herein incorporated by reference and are referred to as E-VIPR. The instrument comprises a microtiter plate handler, an optical system for exciting the coumarin dye while simultaneously recording the coumarin and oxonol emissions, a waveform generator, a current- or voltage-controlled amplifier, and a device for inserting electrodes in well. Under integrated computer control, this instrument passes user-programmed electrical stimulus protocols to cells within the wells of the microtiter plate.
24 hours before the assay on E-VIPR, HEK cells expressing human Nav1.8 were seeded in 384-well poly-lysine coated plates at 15,000-20,000 cells per well. HEK cells were grown in media (exact composition is specific to each cell type and NaV subtype) supplemented with 10% FBS (Fetal Bovine Serum, qualified; GibcoBRL #16140-071) and 1% Pen-Strep (Penicillin-Streptomycin; GibcoBRL #15140-122). Cells were grown in vented cap flasks, in 90% humidity and 5% CO2.
• 100 mg/mL Pluronic F-127 (Sigma #P2443), in dry DMSO • Compound Plates: 384-well round bottom plate, e.g. Corning 384-well Polypropylene Round Bottom #3656 • Cell Plates: 384-well tissue culture treated plate, e.g. Greiner #781091-1B • 10 mM DiSBAC6(3) (Aurora #00-100-010) in dry DMSO • 10 mM CC2-DMPE (Aurora #00-100-008) in dry DMSO • 200 mM ABSC1 in H20
Bath1 buffer: Glucose 10 mM (1.8 g/L), Magnesium Chloride (Anhydrous), 1 mM (0.095 g/L), Calcium Chloride, 2 mM (0.222 g/L), HEPES 10 mM (2.38 g/L), Potassium Chloride, 4.5 mM (0.335 g/L), Sodium Chloride 160 mM (9.35 g/L).
Hexyl Dye Solution: Bath1 Buffer+0.5% β-cyclodextrin (make this prior to use, Sigma #C4767), 8 μM CC2-DMPE+2.5 μM DiSBAC6(3). To make the solution Added volume of 10% Pluronic F127 stock equal to volumes of CC2-DMPE+DiSBAC6(3). The order of preparation was first mix Pluronic and CC2-DMPE, then added DiSBAC6(3) while vortexing, then added Bath1+β-Cyclodextrin.
1) Pre-spotted compounds (in neat DMSO) into compound plates. Vehicle control (neat DMSO), the positive control (20 mM DMSO stock tetracaine, 125 μM final in assay) and test compounds were added to each well at 160× desired final concentration in neat DMSO. Final compound plate volume was 80 μL (80-fold intermediate dilution from 1 μL DMSO spot; 160-fold final dilution after transfer to cell plate). Final DMSO concentration for all wells in assay was 0.625%.
2) Prepared Hexyl Dye Solution.
3) Prepared cell plates. On the day of the assay, medium was aspirated and cells were washed three times with 100 μL of Bath1 Solution, maintaining 25 μL residual volume in each well.
4) Dispensed 25 μL per well of Hexyl Dye Solution into cell plates. Incubated for 20-35 minutes at room temp or ambient conditions.
5) Dispensed 80 μL per well of Bath1 into compound plates. Acid Yellow-17 (1 mM) was added and Potassium Chloride was altered from 4.5 to 20 mM depending on the NaV subtype and assay sensitivity.
6) Washed cell plates three times with 100 μL per well of Bath1, leaving 25 μL of residual volume. Then transferred 25 uL per well from Compound Plates to Cell Plates. Incubated for 20-35 minutes at room temp/ambient condition.
7) Read Plate on E-VIPR. Used the current-controlled amplifier to deliver stimulation wave pulses for 10 seconds and a scan rate of 200 Hz. A pre-stimulus recording was performed for 0.5 seconds to obtain the un-stimulated intensities baseline. The stimulatory waveform was followed by 0.5 seconds of post-stimulation recording to examine the relaxation to the resting state.
Data was analyzed and reported as normalized ratios of emission intensities measured in the 460 nm and 580 nm channels. […]

Data set [1] in a line: Human liver microsome assay. As to conditions: 1 uM substrate, 0.5 mg/mL liver microsome, 2 mM NADPH, 37° C., referenced against time zero control. The class given is in vitro ADME. Here is the method: Human Liver Microsome Assay Protocol
Liver microsomal stability data were generated as follows. Substrates were incubated at 37° C. and shaken for 30 minutes in a phosphate buffered solution with human liver microsomes and the cofactor NADPH. A time zero control was similarly prepared, however with NADPH excluded. The final incubation concentrations were 1 uM substrate (0.2% DMSO), 0.5 mg/mL liver microsome, 2 mM NADPH, and 0.1 M phosphate. Reactions were quenched and proteins precipitated with the addition of 2 volume equivalents of ice cold acetonitrile containing an internal standard. Following a centrifugation step, aliquots from the quenched incubations were further diluted with 4 volume equivalents of a 50% aqueous methanol solution and then subjected to LC/MS/MS analysis for quantitation of parent substrate. Microsome stability values were calculated as the percent of substrate remaining after 30 minutes referenced against the time zero control.

SMILES strings stand for the structures.

With `NS(=O)(=O)c1cccc(NC(=O)c2ccc(C(F)(F)F)cc2Oc2ccc(F)cc2)c1` [Compound 1, 2-(4-fluorophenoxy)-N-(3-sulfamoylphenyl)-4-(trifluoromethyl)benzamide], at human Nav1.8, the IC50 (in general, the concentration at which inhibition is half-maximal) was determined as 14 nM. The “HLM: percent unchanged after 30 min” value in data set [1] is reported as 83%.

Consider `NS(=O)(=O)c1cccc(NC(=O)c2ccc(C(F)(F)F)cc2Oc2ccc(F)cc2F)c1` [Compound 2, 2-(2,4-difluorophenoxy)-N-(3-sulfamoylphenyl)-4-(trifluoromethyl)benzamide], for which inhibition on human Nav1.8 was half-maximal at 22 nM (IC50). Moreover, the “HLM: percent unchanged after 30 min” value in data set [1] was 97%.

On human Nav1.8, `NS(=O)(=O)c1cccc(NC(=O)c2cc(C(F)(F)F)ccc2Oc2ccc(F)cc2)c1` [Compound 3, 2-(4-fluorophenoxy)-N-(3-sulfamoylphenyl)-5-(trifluoromethyl)benzamide] showed an IC50 of 16 nM. Further, the “HLM: percent unchanged after 30 min” value in data set [1] is recorded as 117%.

Molecule `N#Cc1ccc(C(=O)Nc2cccc(S(N)(=O)=O)c2)c(Oc2ccc(F)cc2Cl)c1` [Compound 4, 2-(2-chloro-4-fluoro-phenoxy)-4-cyano-N-(3-sulfamoylphenyl)benzamide] returned an IC50 against human Nav1.8 of 27 nM. Besides, in data set [1], the “HLM: percent unchanged after 30 min” value turned out to be 118%.

With `NS(=O)(=O)c1cccc(NC(=O)c2cc(Cl)ccc2Oc2ccc(F)cc2)c1` [Compound 5, 5-chloro-2-(4-fluorophenoxy)-N-(3-sulfamoylphenyl)benzamide], on human Nav1.8, it took 21 nM to reach half-maximal inhibition (IC50). The “HLM: percent unchanged after 30 min” value in data set [1] is 107%.

In turn, `NS(=O)(=O)c1cccc(NC(=O)c2cc(C(F)(F)F)ccc2Oc2ccc(F)cc2F)c1` [Compound 6, 2-(2,4-difluorophenoxy)-N-(3-sulfamoylphenyl)-5-(trifluoromethyl)benzamide] returned an IC50 on human Nav1.8 of 13 nM. Also, in data set [1], the “HLM: percent unchanged after 30 min” value is listed as 106%.

`Cc1cc(C(=O)Nc2cccc(S(N)(=O)=O)c2)c(Oc2ccc(F)cc2)cc1Cl` [Compound 7, 4-chloro-2-(4-fluorophenoxy)-5-methyl-N-(3-sulfamoylphenyl)benzamide] displayed an IC50 at human Nav1.8 of 12 nM. For the same molecule, the “HLM: percent unchanged after 30 min” value in data set [1] was determined as 78%.

For the molecule `NS(=O)(=O)c1cccc(NC(=O)c2ccc(Cl)cc2Oc2ccc(F)cc2Cl)c1` [Compound 8, 4-chloro-2-(2-chloro-4-fluorophenoxy)-N-(3-sulfamoylphenyl)benzamide], 10 nM corresponded to half-maximal inhibition against human Nav1.8 (IC50). In data set [1], the “HLM: percent unchanged after 30 min” value came to 108%.

Consider `Cc1cc(F)ccc1Oc1cc(C#N)ccc1C(=O)Nc1cccc(S(N)(=O)=O)c1` [Compound 9, 4-cyano-2-(4-fluoro-2-methyl-phenoxy)-N-(3-sulfamoylphenyl)benzamide], for which the IC50 against human Nav1.8 is 28 nM. Moreover, the “HLM: percent unchanged after 30 min” value in data set [1] was 102%.

Consider `COc1cc(F)ccc1Oc1cc(C#N)ccc1C(=O)Nc1cccc(S(N)(=O)=O)c1` [Compound 10, 4-cyano-2-(4-fluoro-2-methoxyphenoxy)-N-(3-sulfamoylphenyl)benzamide], for which the IC50 against human Nav1.8 was found to be 20 nM. Also, the “HLM: percent unchanged after 30 min” value in data set [1] is 86%.

Molecule `N#Cc1ccc(Oc2ccc(F)cc2Cl)c(C(=O)Nc2cccc(S(N)(=O)=O)c2)c1` [Compound 11, 2-(2-chloro-4-fluorophenoxy)-5-cyano-N-(3-sulfamoylphenyl)benzamide] had an IC50 on human Nav1.8 of 24 nM. For the same molecule, the “HLM: percent unchanged after 30 min” value in data set [1] came out at 89%.

Take `Cc1cc(F)ccc1Oc1cccc(C(F)(F)F)c1C(=O)Nc1cccc(S(N)(=O)=O)c1` [Compound 12, 2-(4-fluoro-2-methylphenoxy)-N-(3-sulfamoylphenyl)-6-(trifluoromethyl)benzamide]: half-maximal inhibition at human Nav1.8 (IC50) was put at 9 nM. Besides, the “HLM: percent unchanged after 30 min” value in data set [1] is given as 94%.

Turning to `COc1cc(F)ccc1Oc1cccc(C(F)(F)F)c1C(=O)Nc1cccc(S(N)(=O)=O)c1` [Compound 13, 2-(4-fluoro-2-methoxyphenoxy)-N-(3-sulfamoylphenyl)-6-(trifluoromethyl)benzamide], on human Nav1.8, 2 nM corresponded to half-maximal inhibition (IC50). For the same molecule, the “HLM: percent unchanged after 30 min” value in data set [1] stood at 78%.

`COc1cc(F)ccc1Oc1cc(C(F)(F)F)ccc1C(=O)Nc1cccc(S(N)(=O)=O)c1` [Compound 14, 2-(4-fluoro-2-methoxyphenoxy)-N-(3-sulfamoylphenyl)-4-(trifluoromethyl)benzamide]: half-maximal inhibition against human Nav1.8 (IC50) was put at 5 nM. In data set [1], the “HLM: percent unchanged after 30 min” value is given as 83%.

`COc1cc(F)ccc1Oc1cc(Cl)ccc1C(=O)Nc1cccc(S(N)(=O)=O)c1` [Compound 15, 4-chloro-2-(4-fluoro-2-methoxy-phenoxy)-N-(3-sulfamoylphenyl)benzamide] gave an IC50 against human Nav1.8 of 13 nM. In addition, in data set [1], the “HLM: percent unchanged after 30 min” value was 81%.

Regarding `COc1cc(F)ccc1Oc1ccc(Cl)cc1C(=O)Nc1cccc(S(N)(=O)=O)c1` [Compound 16, 5-chloro-2-(4-fluoro-2-methoxyphenoxy)-N-(3-sulfamoylphenyl)benzamide], at human Nav1.8, the IC50 worked out at 7 nM. Further, the “HLM: percent unchanged after 30 min” value in data set [1] was 86%.

For `NS(=O)(=O)c1cccc(NC(=O)c2cc(Cl)ccc2Oc2ccc(F)cc2Cl)c1` [Compound 17, 5-chloro-2-(2-chloro-4-fluorophenoxy)-N-(3-sulfamoylphenyl)benzamide], the midpoint of inhibition against human Nav1.8, the IC50, lay at 5 nM. For the same molecule, the “HLM: percent unchanged after 30 min” value in data set [1] is given as 102%.

At human Nav1.8, `Cc1cc(F)ccc1Oc1cc(C(F)(F)F)ccc1C(=O)Nc1cccc(S(N)(=O)=O)c1` [Compound 18, 2-(4-fluoro-2-methylphenoxy)-N-(3-sulfamoylphenyl)-4-(trifluoromethyl)benzamide] showed an IC50 of 7 nM. The “HLM: percent unchanged after 30 min” value in data set [1] is reported as 98%.

With `Cc1cc(F)ccc1Oc1cc(Cl)ccc1C(=O)Nc1cccc(S(N)(=O)=O)c1` [Compound 19, 4-chloro-2-(4-fluoro-2-methyl-phenoxy)-N-(3-sulfamoylphenyl)benzamide], at human Nav1.8, inhibition was half-maximal at 16 nM (IC50). In addition, in data set [1], the “HLM: percent unchanged after 30 min” value is reported as 94%.

Consider `COc1ccc(Oc2cc(Cl)c(Cl)cc2C(=O)Nc2cccc(S(N)(=O)=O)c2)c(OC)c1` [Compound 76, 4,5-dichloro-2-(2,4-dimethoxyphenoxy)-N-(3-sulfamoylphenyl)benzamide], for which the “HLM: percent unchanged after 30 min” value in data set [1] stood at 58%.

`COc1cc(Cl)ccc1Oc1cc(Cl)ccc1C(=O)Nc1cccc(S(N)(=O)=O)c1` [Compound 85, 4-chloro-2-(4-chloro-2-methoxyphenoxy)-N-(3-sulfamoylphenyl)benzamide]: the IC50 on human Nav1.8 is 15 nM.

Molecule `CC(C)Oc1ccc(Oc2cc(Cl)ccc2C(=O)Nc2cccc(S(N)(=O)=O)c2)cc1` [Compound 87, 4-chloro-2-(4-isopropoxyphenoxy)-N-(3-sulfamoylphenyl)benzamide] came in with an IC50 at human Nav1.8 of 29 nM.

With `COc1ccc(Oc2cc(C(F)(F)F)cc(C3CC3)c2C(=O)Nc2cccc(S(N)(=O)=O)c2)cc1F` [Compound 100, 2-cyclopropyl-6-(3-fluoro-4-methoxyphenoxy)-N-(3-sulfamoylphenyl)-4-(trifluoromethyl)benzamide], it took 18 nM to reach half-maximal inhibition against human Nav1.8 (IC50).
